Results taken from patent US20230137306A1 (priority 2020, published 2023).
Structures can show the parent of a compound that is named as a salt. Where two headings read alike, the source gives them in different places.

What was measured:
[1] = system: membrane fusion induced by the S protein of SARS-CoV-2; type: cell-based, human
[2] = system: membrane fusion induced by the S protein of SARS-CoV; type: cell-based, human; settings: 293FT target cells, nafamostat 0.1 μM to 10 μM, gabexsate 1 μM to 10 μM, FIG. 6
[3] = system: RNA viruses such as norovirus, bunyavirus, arenavirus, flavivirus and Filovirus; settings: cited from earlier work
[4] = system: membrane fusion induced by the S protein of SARS-CoV-2 (Calu-3 cells); type: cell-based, human
[5] = system: membrane fusion induced by the S protein of SARS-CoV-2 (H3255 cells); type: cell-based, human
SARS-CoV-2 [6] = settings: read-out: 50% infection inhibitory concentration (IC50); Vero E6 cells, TMPRSS2 not expressed; Wang et al.; cited from earlier work
[7] = healthy adult males, cited from earlier work
[8] = system: membrane fusion caused by the S protein of MERS-CoV; settings: cited from earlier work
[9] = Pharmacokinetics, intravenous drip in healthy adult males; settings: 20 mg intravenous drip over 90 minutes; corresponds to 61.5 ng/mL
COVID-19 = settings: randomized controlled trials; cited from earlier work
SARS-CoV = settings: cited from earlier work
SARS-CoV-2 [10] = settings: human, in vivo; cited from earlier work

Structure (SMILES): CN(C)C(=O)COC(=O)Cc1ccc(OC(=O)c2ccc(NC(=N)N)cc2)cc1 [camostat mesylate, dimethylcarbamoylmethyl 4-(4-guanidinobenzoyloxy)phenylacetate monomethanesulfonate]
- inhibitory effect on membrane fusion (relative cell fusion, RL activity) [1]: membrane fusion was inhibited
- inhibitory effect relative to that of nafamostat mesylate [1]: about 1/10
- inhibitory effect on membrane fusion (relative cell fusion, RL activity) [2]: second highest inhibitory effect

Structure (SMILES): NC(=O)c1nc(F)c[nH]c1=O [favipiravir]
- antiviral activity against RNA viruses [3]: exhibits antiviral activity

Structure (SMILES): N=C(N)c1ccc2cc(OC(=O)c3ccc(N=C(N)N)cc3)ccc2c1 [nafamostat mesylate, 6-amidinonaphthalen-2-yl 4-guanidinobenzoate bis(methanesulfonate)]
- concentration lower than that used for the 293FT cells [4]: about 10 fold
- inhibitory activity against membrane fusion, stronger than that of camostat mesylate [4]: about 10 fold
- suppression of membrane fusion [4]: almost completely suppressed
- suppression of membrane fusion [5]: almost completely suppressed
- IC50 (SARS-CoV-2 [6]): 22.5 µM
- maximum blood concentration of unchanged agent ([7]; 10 mg intravenous drip over 90 minutes): 16.4 ng/mL
- maximum blood concentration of unchanged agent ([7]; 20 mg intravenous drip over 90 minutes): 61.5 ng/mL
- inhibition of membrane fusion caused by the S protein of MERS-CoV [8]: effectively inhibits
- maximum blood concentration converted to [9]: 114 nM

Structure (SMILES): Cc1cccc(C)c1OCC(=O)N[C@@H](Cc1ccccc1)[C@@H](O)C[C@H](Cc1ccccc1)NC(=O)[C@H](C(C)C)N1CCCNC1=O [lopinavir]
- improvement of the symptoms of COVID-19 (COVID-19): could not improve the symptoms
- inhibitory activity against SARS-CoV (SARS-CoV): exhibited inhibitory activity

Structure (SMILES): CC(C)c1nc(CN(C)C(=O)N[C@H](C(=O)N[C@@H](Cc2ccccc2)C[C@H](O)[C@H](Cc2ccccc2)NC(=O)OCc2cncs2)C(C)C)cs1 [ritonavir]
- improvement of the symptoms of COVID-19 (COVID-19): could not improve the symptoms
- inhibitory activity against SARS-CoV (SARS-CoV): exhibited inhibitory activity

Structure (SMILES): CCN(CCO)CCCC(C)Nc1ccnc2cc(Cl)ccc12 (stereo not drawn) [Hydroxychloroquine]
- removal of SARS-CoV-2 from the nasopharynx (SARS-CoV-2 [10]): removed at high frequency
